Test results taken from patent publication US20050095606A1, “Partially double-stranded nucleic acids, methods of making, and use thereof” (priority 2001, published 2005).

What was measured:
Format in all cases: cell-based
Settings in all cases: 6 hours
C-myc [1] = assay: Flow-Thru Chip gene expression analysis after multiplex RT-PCR, MCF-7 cells
Source text: (§1) MCF-7 cells are estrogen responsive breast adenocarcinoma cells that have been used previously as a model system for evaluation of breast cancer drugs. Initial studies have examined the effect of an anti-estrogen, tamoxifen, on the estradiol response of MCF-7 cells. Estradiol stimulates cell proliferation through the G1 phase in synchronized cell growth studies. Tamoxifen treatment of cells inhibits the induction of several genes that occur upon estradiol treatment by blocking estrogen receptor cofactors required for transcription. The Flow-Thru Chip™has been used as an analysis platform for a set of genes reported in the literature as differentially regulated in the MCF-7 system under estradiol and tamoxifen treatment. TAQMAN® PCR was performed to measure the changes in expression levels for each of the monitored genes across the treatments.
(§2) The experimental protocols for estradiol and tamoxifen treatment have been described in detail elsewhere (Wosikowski et al., Int. J. Cancer 53:290-297 (1993)). In this study MCF-7 (ATTC, Manassas, Va.) cells were maintained in MEM alpha medium supplemented with 10% heat-inactivated fetal bovine serum, Penicillin-Streptomycin and 10 μg/ml bovine insulin (complete medium) (Life Technologies, Gaithersburg, Md.). […] The purity and integrity of the total RNA was assessed by the 260/280 absorbance and the 28s/18s RNA ratios.
(§3) Analysis of genes under test by the Flow-Thru Chip™ required amplification from the total RNA. […] The appropriate number of cycles for each grouping of target nucleic acids was determined empirically to assure that all targets in the group were in the linear dynamic range of the chip and had not reached primer limitation in the PCR amplification. […]
(§4) The ability to multiplex target nucleic acids under study was confirmed by TAQMAN®, analysis of the singleplex and multiplex amplifications. […] Changes in expression level between samples were determined by comparing the brightness of gene-spots measured for each target nucleic acid relative to a reference target nucleic acid, β-actin. […]

C-myc [2] = assay: TAQMAN PCR gene expression analysis, MCF-7 cells
Source text: as §1, with “The Flow-Thru Chip™has been used as an analysis platform for a set of genes reported in the literature as differentially regulated in the MCF-7 system under estradiol and tamoxifen treatment.” left out
The experimental protocols for estradiol and tamoxifen treatment have been described in detail elsewhere (Wosikowski et al., Int. J. Cancer 53:290-297 (1993)). […] The purity and integrity of the total RNA was assessed by the 260/280 absorbance and the 28s/18s RNA ratios.
as §4

[3] = system: 12 target nucleic acids in MCF-7 cells; assay: Change in expression level of 12 target nucleic acids across cell treatments (Flow-Thru Chip and TAQMAN)
Source text: as §1, §2, §3, §4

SMILES | C-myc fold up-regulation (C-myc [1]; 10 nM 17-beta-estradiol, relative to vehicle control (=1.0), reference β-actin, Flow-Thru Chip) [fold] | C-myc fold up-regulation (C-myc [2]; 10 nM 17-beta-estradiol, relative to vehicle control (=1.0), reference β-actin, TAQMAN) [fold] | effect on expression of the target nucleic acids ([3]; 10 nM 17-beta-estradiol) | influence on C-myc expression (C-myc [1]; 1 μM tamoxifen alone, method not stated) | C-myc fold increase (C-myc [1]; 1 μM tamoxifen in conjunction with 10 nM 17-beta-estradiol, Flow-Thru Chip (same by both methods)) | C-myc fold increase (C-myc [2]; 1 μM tamoxifen in conjunction with 10 nM 17-beta-estradiol, TAQMAN (same by both methods)) | effect on estradiol induction of the set of target nucleic acids ([3]; 1 μM tamoxifen added to 10 nM 17-beta-estradiol) | influence on expression of any of the target nucleic acids ([3]; 1 μM tamoxifen alone)
C[C@]12CC[C@@H]3c4ccc(O)cc4CC[C@H]3[C@@H]1CC[C@@H]2O [estradiol, 17-beta-estradiol] | 23±4 | 27±6 | induces expression | – | – | – | – | –
CC/C(=C(\c1ccccc1)c1ccc(OCCN(C)C)cc1)c1ccccc1 [tamoxifen] | – | – | – | no influence | roughly 8 fold | roughly 8 fold | suppresses the induction | little influence
